{"source": "patent US20050261194A1", "about": "“Use of thymulin-like peptides for making pain-relieving medicines” (priority 2001, published 2005)", "assay_type_in_all_cases": "in vivo, rat", "key": {"[1]": {"test_system": "rats", "experiment": "SNI (spared nerve injury) mononeuropathy: allodynia and hyperpathy", "procedure": "Adult male Sprague-Dawley rats (250-300 g) were used for these trials. Over the period of the experiments, the rats were placed under standard conditions (4 to 5 individuals to a cage, 12 hour day/night cycle, 22.2° C.), with free access to water and food. The necessary surgical procedures were done under deep anesthesia using ketamine (Ketalar®, 40-50 mg/kg, intraperitoneal injection), preceded by pre-anesthesia using chlorpromazine (8 mg/kg, idem) and atropine (0.05 mg/kg, idem).\nMononeuropathy was induced in different groups of rats (n=6 rats in each group) according to the CCI (chronic constriction injury, chronic nerve constriction, Bennet G. J. et Xie Y. K., 1988, A peripheral mononeuropathy in rat that produces disorders of pain sensation like those seen in man, Pain, 33:87-107) or according to the SNI (spared nerve injury, spared nerve of the enervated paw, Decosterd I. et Woolf C. J., 2000, Spared nerve injury: an animal model of persistent peripheral neuropathic pain, Pain, 87:149-158). The sciatic nerve was exposed after dissection of the posterior hip and by incision through the skin and the fatty layer covering the popliteal fossa. For the CCI model, four loose ligatures (chromed catgut 4.0) were placed on the proximal side of the sciatic trifurcation. For the SNI model, the external popliteal sciatic nerve and the internal popliteal sciatic nerve were isolated, tightly ligatured and sectioned, while the sural nerve innervating the lateral aspect of the paw was left intact.\nThe rats were placed in individual compartments of one cage, whose floor was made of a metal grating allowing access to the heel pad and to the lateral aspect of the paw with wires.\nFor mechanical allodynia, the plantar surface of the hind paws (lateral surface for the SNI model and the median plantar surface for the CCI) was contacted with the von Frey wires (VFF 4.31 and 5.07, Stoelting Co., USA), which corresponded to the forces of 2.041 and 11.749 g (18.5 and 106.7 mN), respectively. […] The number of paw retractions induced by 10 trials was established for each rat on each hind paw prior to (baseline) and after induction of the mono-neuropathy. In normal rats, the low caliber wires (VFF 4.31) and higher caliber (VFF 5.07) induced an average 1.3±0.2 and 2.7±0.3 responses/10 trials, respectively.\nThe method described by Choi et al. (1994, Behavioral signs of ongoing pain and cold allodynia in a rat model of neuropathic pain, Pain, 59:369-376) was used for evaluation of cold allodynia. It consists of applying several drops (approximately 50 μl) of an acetone solution on the paw and measuring the duration of the retraction reaction. One half second and 20 seconds are the values chosen arbitrarily for the minimum and maximum threshold, respectively.\nThe duration (D) of retraction of the paw (RP) in response to a nociceptive ray of radiant heat oriented towards the plantar surface was established in the normal rat. […] the DRP after induction of the mononeuropathy was considered to be an indication of hyperalgesia. Each rat underwent two RP tests per session a minimum of every five minutes.\nThe neuropathic manifestations were at maximum seven to ten days after induction of the neuropathy. The effects of the injections of TAP were tested during this period, which corresponds to the peak of the neuropathy.\nDuring the experiments done on rats suffering from neuropathy, allodynia and hyperpathy were evaluated in each group of animals with reference to the baseline condition established prior to induction of mononeuropathy. For example, the average of the number of paw withdrawal induced by each VFF was calculated for all of the rats of each group and the variation of this mean has been determined after treatment with TAP at different time periods after the injection. The same method has been followed for allodynia in the code and the hypertrophy relative to heat."}, "[2]": {"test_system": "TNF-α", "experiment": "TNF-α in hind paw skin after intraplantar ET (ELISA)", "procedure": "(§1) These experiments required tissue sampling. The animals were sacrificed by anesthesia (sodium penthiobarbital, 50 mg/kg) and the skin of the hind paws is sampled either at 1 h (for the determination of the TNFα) or at 4 h (for the determination of IL-1β, IL-6 and NGF) after the endotoxin injection.\n(§2) These tissue samples are weighed and then quick frozen and stored at −70° C. with a view of proceeding with the evaluation of IL-1β, TNFα, IL-6 and NGF.\n(§3) In another series of experiments, the tissues are taken as described above using different groups of rats; the one group being pretreated with TAP 30 minutes before injection of ET and the other group having been injected with TAP only.\n(§4) The tissues are homogenized in a phosphate buffer solution (PBS, pH=7.4), containing 0.4 M of NaCl, 0.05% of Tween-20®, 0.5% bovine serum albumin (BSA), 0.1 mM of phenylmethylsulfonyl fluoride, 0.1 mM of benzethonium chloride, 10 mM of EDTA and 20 KI/mL of aprotinin.\n(§5) The mixture is then centrifuged at 1,200 g for 60 minutes at 4° C. The cytokines and the NFG contained in the supernatant were measured using ELIZA assays. […]"}, "[3]": {"test_system": "IL-6", "experiment": "IL-6 in hind paw skin after intraplantar ET (ELISA)", "procedure": "as §1, §2, §3, §4, §5"}, "[4]": {"test_system": "IL-1β", "experiment": "IL-1β in hind paw skin after intraplantar ET (ELISA)", "procedure": "as §1, §2, §3, §4, §5"}, "[5]": {"conditions": "SNI, meloxican 5 mg/kg i.p., morphine 4 mg/kg i.p., at peak of activity 45-60 minutes after injection, FIG. 10"}, "[6]": {"conditions": "TAP 25 μg in control animals, no ET"}}, "data": [{"substance": "Glu-Ala-lys-Ser-Gln-Gly-Gly-Ser-Asp (SQGGSD; N-terminal Glu-Ala-Lys; printed: Ser-Gln-Gly-Gly-Ser-Asp) [TAP]", "values": [{"measurement": "reversibility of the effects, time after injection", "setting": "[1]; SNI, TAP 5 μg i.p.", "result": "three to four hours"}, {"measurement": "time of maximum effect on all of the neuropathic manifestations after injection", "setting": "[1]; SNI, TAP 5 μg i.p.", "result": 75, "unit": "min"}, {"measurement": "dose giving maximal attenuation of the neuropathic manifestations", "setting": "[1]; SNI, doses 1, 5 and 25 μg compared, FIG. 7", "result": 5, "unit": "μg/rat"}, {"measurement": "reduction of tactile allodynia compared with meloxican and morphine", "setting": "[1]; [5]", "result": "greater reduction"}, {"measurement": "reduction of thermal hyperalgesia compared with meloxican and morphine", "setting": "[1]; [5]", "result": "greater reduction"}, {"measurement": "effect on cold allodynia, SNI model", "setting": "[1]; TAP 5 μg i.p., single injection", "result": "only moderately reduced"}, {"measurement": "effect on neuropathic manifestations, SNI model", "setting": "[1]; TAP 5 μg in 100 μl i.p., FIG. 6", "result": "significant attenuation"}, {"measurement": "change of TNF-α concentration, TAP alone", "setting": "[2]; [6]", "result": "did not induce significant change"}, {"measurement": "effect on ET-induced increase of TNF-α concentration", "setting": "[2]; TAP pretreatment 30 min before ET, paw, one hour after ET, ET alone 345.0±61.0, saline 100.0±8.00 pg/paw", "result": "nullified the increase of the TNF-α concentration"}, {"measurement": "change of IL-6 concentration, TAP alone", "setting": "[3]; [6]", "result": "did not induce significant change"}, {"measurement": "IL-6 concentration", "setting": "[3]; TAP pretreatment before intraplantar ET, ET alone 2831±285, saline 250.0±50.0, p<0.001", "result": "1158±197.0", "unit": "pg/paw"}, {"measurement": "change of IL-1β concentration, TAP alone", "setting": "[4]; [6]", "result": "did not induce significant change"}, {"measurement": "IL-1β concentration", "setting": "[4]; TAP pretreatment before intraplantar ET, ET alone 2850.6±255.4, saline 400.0±45.0, P<0.01", "result": "1686.0±266.0", "unit": "pg/paw"}]}]}
